Assay: Toxicity in mouse erythrocytes assessed as hemolytic activity
Format: cell-based, Erythrocyte

Row | SMILES | HC50
1 | CC(C)CCC[C@@H](COS(=O)(=O)O)[C@H]1CC[C@H]2[C@@H]3CC=C4C[C@H](OS(=O)(=O)O)CC[C@]4(C)[C@H]3CC[C@]12C.NCCc1ccc(O)cc1 | 33 µM
2 | CC(C)CCC[C@@H](COS(=O)(=O)O)[C@H]1CC[C@H]2[C@@H]3CC[C@H]4[C@@H](O)[C@H](OS(=O)(=O)O)CC[C@]4(C)[C@H]3CC[C@]12C | 45 µM
3 | CC(C)CCC[C@@H](COS(=O)(=O)O)[C@H]1CC[C@H]2[C@@H]3CC[C@H]4C[C@H](OS(=O)(=O)O)CC[C@]4(C)[C@H]3CC[C@]12C | 10 µM
4 | CC(C)CCC[C@@H](COS(=O)(=O)O)[C@H]1CC[C@H]2[C@@H]3CC=C4[C@@H](O)[C@H](OS(=O)(=O)O)CC[C@]4(C)[C@H]3CC[C@]12C | 80 µM
5 | CC(C)CCC[C@@H](COS(=O)(=O)O)[C@H]1CC[C@H]2[C@@H]3CC[C@H]4C[C@H](OS(=O)(=O)O)CC[C@]4(C)[C@H]3CC[C@]12C.NCCc1ccc(O)cc1.NCCc1ccc(O)cc1 | 18 µM

Reference: ChEMBL document CHEMBL1159350, “Hemolytic steroid disulfates from the far eastern starfish Pteraster pulvillus” (J Nat Prod, 2003)
